{"source": "patent US5164411A", "about": "“Pyrethroid compositions” (priority 1991, dated 1992)", "key": {"certain insect species": {"tested_on": "certain insect species", "assay": "Insecticidal activity, overall statement", "assay_type": "in vivo", "experimental": "(§1) Cypermethrin and sigma-cypermethrin were tested by foliar application at various concentrations in aqueous solutions containing 9.75% acetone and 0.25% octylphenoxypolyethoxyethanol. Insect species utilized included the cabbage looper (Trichoplusia ni), southern armyworm (Spodoptera eridania), Mexican bean beetle (Epilachna varivestis), tobacco budworm (Heliothis virescens), and corn earworm (Heliothis zea).\n(§2) For all insects, pinto beans (Phaseolus vulgaris) plants were treated with the test solutions. The test solutions were applied with a sprayer to the upper and lower surfaces of the plant leaves to runoff. The plants were then allowed to dry and were severed at the base of the stem before being placed in cups. Ten second instar individuals of the appropriate insect species, except the tobacco budworm and corn earworm, were placed in each cup and the cup covered. Tests with the tobacco budworm and corn earworm used four replicates with each replicate containing five second instar insects. In all tests, mortality was read 48 hours later. The sigma-cypermethrin used in the foliar evaluations was the product of Example 2."}, "Lepidoptera": {"tested_on": "Lepidoptera", "assay": "Foliar evaluation, average over Lepidoptera", "assay_type": "in vivo", "details": "laboratory", "experimental": "as §1, §2"}, "[1]": {"tested_on": "mammals and certain species of fish", "assay": "Mammalian toxicology and fish toxicity, summary of the tests", "assay_type": "in vivo, rat; fish", "details": "at rates giving commercial control of target crop insects", "experimental": "In the 90-day feeding study, conducted in compliance with EPA guideline 82-1, the compound under test was administered continuously in the diet to groups of rats for at least ninety days at concentrations of 0, 150, and 1500 ppm to groups of fifteen Sprague-Dawley rats for cypermethrin and 0, 10, 50, 150, 250, 500, and 900 ppm to groups of ten Fisher 344 rats for sigma-cypermethrin. (The rates for sigma-cypermethrin were lower, because it was expected to be more toxic than cypermethrin.) The cypermethrin isomer content (weight %) of the sigma-cypermethrin technical product used in this study was total isomers--88.2%, S-isomers--82%, cis/trans ratio--53/47. Individual body weight and food consumption values were recorded weekly. At termination, hematology and clinical chemistry determinations were conducted and organ weights were obtained for adrenals, brain, heart, kidneys, liver, and ovaries or testes. […]\nMultigeneration studies were conducted in compliance with EPA guideline 83-4 and provide information on reproductive parameters as well as neonatal morbidity and mortality for multiple generations. […] Body weights and food consumption were recorded at regular intervals. […]"}, "target crop insects": {"tested_on": "target crop insects", "assay": "Field trials, overall statement", "assay_type": "in vivo", "details": "at half the rate of cypermethrin, or even lower", "source_text": "Field trials conducted on cotton in Louisiana, Mississippi, Alabama, and Arizona consisted of a randomized complete block design of four replications per treatment. Plots were a minimum of 0.2 acres, and all applications were by commercial ground equipment with a minimum of 10 gallons total spray solution per acre. The cypermethrin isomer content (weight %) of the several sigma-cypermethrin technical products used in the field trials were as follows:\nAnalysis of the data was based on a seasonal average of multiple evaluations taken over a four to six week period (3-4 applications) in trials for control of Heliothis sp.\nField trials conducted on lettuce in California for evaluation of the control of cabbage looper consisted of a randomized complete block design of four replications per treatment. Applications were made to small plots with CO2 backpack sprayer using a minimum of 10 gallons per acre. Results were converted to percent control based on untreated check plots.\nField trials were conducted in Louisiana, North Carolina, Texas, Kentucky, Tennessee, and Illinois to evaluate the control of alfalfa weevil (Hypera postica). Small plot trials were used in a randomized block design with four replications per treatment. Applications were made with CO2 backpack sprayers. […]"}}, "data": [{"smiles": "CC1(C)C(C=C(Cl)Cl)C1C(=O)O[C@H](C#N)c1cccc(Oc2ccccc2)c1", "note": "(mixture of isomers) [sigma-cypermethrin, (S)(cyano)(3-phenoxyphenyl)methyl cis/trans-3-(2,2-dichloroethenyl)-2,2-dimethylcyclopropanecarboxylate]", "values": [{"measurement": "effectiveness relative to cypermethrin", "setting": "certain insect species", "value": "twice as effective as cypermethrin"}, {"measurement": "average effectiveness relative to cypermethrin", "setting": "Lepidoptera", "value": 1.9, "unit": "times"}, {"measurement": "toxicity relative to cypermethrin", "setting": "[1]", "value": "significantly less toxic to mammals and certain species of fish"}, {"measurement": "field results relative to cypermethrin", "setting": "target crop insects", "value": "generally gave results essentially equivalent to that obtained with cypermethrin applied at the recommended rate"}]}]}
